Source: BindingDB's records for doi:10.1186/2191-2858-2-21 (University of The West Indies, 2012)

Legend:
[1] = target: T1, Cytochrome P450 1A1 (Homo sapiens, UniProt P04798); test: CYP Inhibition Assay
T1 sequence (P04798 whole entry): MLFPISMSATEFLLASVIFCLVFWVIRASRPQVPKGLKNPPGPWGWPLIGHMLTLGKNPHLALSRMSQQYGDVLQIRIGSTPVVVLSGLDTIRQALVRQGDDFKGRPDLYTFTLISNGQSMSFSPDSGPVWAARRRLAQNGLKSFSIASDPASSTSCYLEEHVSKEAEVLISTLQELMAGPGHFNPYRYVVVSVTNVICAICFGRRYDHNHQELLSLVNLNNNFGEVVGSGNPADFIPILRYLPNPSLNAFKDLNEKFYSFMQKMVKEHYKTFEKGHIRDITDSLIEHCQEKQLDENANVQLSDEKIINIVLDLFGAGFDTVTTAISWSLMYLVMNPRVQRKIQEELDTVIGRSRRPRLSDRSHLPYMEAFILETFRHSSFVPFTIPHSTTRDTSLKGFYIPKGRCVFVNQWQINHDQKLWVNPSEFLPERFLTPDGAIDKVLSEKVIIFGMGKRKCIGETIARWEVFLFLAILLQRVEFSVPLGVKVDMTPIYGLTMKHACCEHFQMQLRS
Method: (§1) The test compounds were evaluated for their ability to inhibit the catlytic activity of human CYP1 enzymes by means of high throughput fluorometric detection assay conducted in 96-well microtitre plates.

[2] = target: Cytochrome P450 2C19 (Homo sapiens, UniProt P33261); test: CYP Inhibition Assay
Cytochrome P450 2C19, sequence (P33261 whole entry): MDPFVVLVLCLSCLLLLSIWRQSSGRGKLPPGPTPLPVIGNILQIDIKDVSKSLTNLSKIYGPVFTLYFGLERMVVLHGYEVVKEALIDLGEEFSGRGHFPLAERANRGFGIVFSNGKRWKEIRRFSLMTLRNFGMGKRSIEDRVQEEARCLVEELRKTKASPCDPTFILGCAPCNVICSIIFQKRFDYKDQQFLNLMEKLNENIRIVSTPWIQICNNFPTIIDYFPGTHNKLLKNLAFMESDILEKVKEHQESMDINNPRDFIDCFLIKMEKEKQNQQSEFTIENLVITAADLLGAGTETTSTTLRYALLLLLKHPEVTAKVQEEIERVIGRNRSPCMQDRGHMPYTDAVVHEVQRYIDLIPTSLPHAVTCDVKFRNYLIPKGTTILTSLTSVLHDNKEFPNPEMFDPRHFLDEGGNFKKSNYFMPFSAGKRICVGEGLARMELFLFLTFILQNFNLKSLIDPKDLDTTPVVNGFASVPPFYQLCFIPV
Method: as §1

Compound: CC(C)(O)CCCC1(C)CC(=O)c2cc(O)c(Br)cc2O1 (configuration not stated) [PBQ1]
- IC50 [1]: 390 nM
- IC50 [2]: 80 nM
